Experimental data from US20050221196A1, “Redox shuttle for rechargeable lithium-ion cell” (priority 2004, published 2005).

Experiments:
[1] = Shuttle molecules tested in LiFePO4/graphite and LiFePO4/Li4/3Ti5/3O4 coin cells, C/10, 100% overcharge; details: 0.1M shuttle, 0.7 M LiBOB PC:DMC:EC:DEC 1:2:1:2
Procedure: A variety of shuttle molecules (obtained from Aldrich Chemical Co. and used without further purification) were tested in LiFePO4/graphite and LiFePO4/Li4/3Ti5/3O4 coin cells. The LiFePO4 was obtained from Phostech Lithium as in Example 1 and the Li4/3Ti5/3O4 was obtained from NEI Corp. (Piscataway, N.J., USA). The graphite used was mesocarbon microbeads (MCMB) heat treated to near 2650° C. Electrodes were made from the active materials 10% by weight Super S carbon black (MMM Carbon, Belgium) and 10% by weight PVDF binder. LiFePO4 and Li4/3Ti5/3O4 electrodes were coated on aluminum foil and MCMB electrodes were coated on copper foil. […] The electrolyte was 0.7 M LiBOB in a 1:2:1:2 by volume mixture of PC:DMC:EC:DEC. The shuttle molecule was added in a concentration of 0.1M. Coin cells were charged using currents corresponding to a normal recharge in 10 hours (C/10) to 200% of their normal charge capacity (100% overcharge) or until a specified upper cut-off potential (normally 4.9V versus Li/Li^+) was reached, which ever occurred first and tested until the shuttle ceased to function. Four shuttles were employed, namely 1,3,5-tri-t-butyl-2-methoxybenzene (Example 9), 5-t-butyl-1,3-dinitro-2-methoxybenzene (Example 10), 2-t-butyl-4,6-dinitro-5-methylanisole (Example 11) and 4-t-butyl-2,6-diaminoanisole (Comparison Example 10). The coin cell test results are set out below in Table 2: […]

[2] = Maximum solubility of shuttle in electrolyte, determined visually; format: physicochemical; details: in the Example 1 and Example 2 electrolyte (0.7 M LiBOB EC:DEC 1:2)
Procedure: Solubility limits were determined visually, after extended mixing.

[3] = Shuttle potential versus sequentially increased charge current in coin cell (Imax)
Excerpt: According to the literature (Richardson et al., J. Electrochem. Soc. Vol. 143, 3992 (1996)) the maximum shuttle current for a singly ionized shuttle is given by Imax=FAD C/d, [1] where F is Faraday's number, A is the electrode area, D is an effective diffusion constant of the shuttle species (taking into account both oxidized and reduced forms of the shuttle), C is the total concentration of the shuttle species and d is the distance between the electrodes. To obtain a large shuttle current, the electrolyte should impart a large diffusion constant, D, to the shuttle and support a high shuttle concentration, C. The shuttle diffusion constant usually will increase as the electrolyte solution viscosity decreases. A variety of charge carrying media may be employed in the electrolyte. Exemplary media are liquids or gels capable of solubilizing sufficient quantities of the lithium salt and the redox chemical shuttle so that a suitable quantity of charge can be transported from the positive electrode to negative electrode. […]
Further testing was carried out in coin cells made using 0.2 M 2,5-di-tert-butyl-1,4-dimethoxybenzene and 0.5 M LiBOB in 1:2 PC:DEC. […] Using cyclic voltammetry, the shuttle diffusion constant was determined to be 1.6×10^−6 cm^2/sec. […]

[4] = Cyclic voltammetry shuttle diffusion constant; format: physicochemical
Procedure: Further testing was carried out in coin cells made using 0.2 M 2,5-di-tert-butyl-1,4-dimethoxybenzene and 0.5 M LiBOB in 1:2 PC:DEC. […] For this cell the shuttle was singly ionized, the initially estimated electrode area was 1.3 cm^2 and the initially estimated electrode spacing was defined by the 25 μm separator. Based on measurements of the shuttle potential versus applied current, the effective diffusion constant D was estimated to be about 7×10^−7 cm^2/sec, and the maximum current density carried by the shuttle was estimated to be about 2.3 mA/cm^2. Using cyclic voltammetry, the shuttle diffusion constant was determined to be 1.6×10^−6 cm^2/sec. […] Thus, the effective area was less than 1.3 cm^2 and the effective length was greater than 25 μm.

[5] = Extended shuttle-protected overcharge cycling, LiFePO4/graphite cell, 100% overcharge each cycle; details: 0.2 M shuttle, 0.5 M LiBOB in 1:2 PC:DEC
Procedure: Further testing was carried out to evaluate currents up to 1/3 of Imax in extended shuttle-protected overcharge tests. […] The shuttle plateau is near 3.9 V because the graphite electrode is near 0 V vs Li/Li^+ when the Li-ion coin cell is fully charged. The charging current was 0.55 mA, which corresponds to about a C/2-rate for the electrodes of this cell. The shuttle continues to perform well after 200 charge discharge cycles. […] In this case, the shuttle was able to protect against overcharge for about 190 cycles, followed by disappearance of the shuttle effect over the next few cycles. […] The loss of shuttle effect at high C rates may have been due to the Li4/3Ti5/3O4 negative electrode dropping below its plateau potential (1.55 V) before reaching the fully discharged state.

In the case of `COc1c([N+](=O)[O-])cc(C(C)(C)C)cc1[N+](=O)[O-]` [Example 10, 5-t-butyl-1,3-dinitro-2-methoxybenzene], the “Potential V, Li/Li^+” value [1] is reported as 4.9 V.
In the case of `COc1c(C(C)(C)C)cc(C(C)(C)C)cc1C(C)(C)C` [Example 9, 1,3,5-tri-t-butyl-2-methoxybenzene], the “Potential V, Li/Li^+” value [1] is reported as 4.4 V.
With `COc1c(N)cc(C(C)(C)C)cc1N` [Comp. Ex. 5, 4-t-butyl-2,6-diaminoanisole, reference compound] the “Potential V, Li/Li^+” value [1] was 4.4 V.
With `COc1cc(C(C)(C)C)c(OC)cc1C(C)(C)C` [2,5-di-tert-butyl-1,4-dimethoxybenzene] the “maximum room temperature solubility” value [2] was roughly 0.09 M, the “potential at which the shuttle became oxidized at the LiFePO4 positive electrode” value ([3]; 0.2 M shuttle, 0.5 M LiBOB in 1:2 PC:DEC) was “about 3.9 V vs Li/Li^+” and the “effective diffusion constant D (estimated from shuttle potential versus applied current)” value ([3]; electrode area 1.3 cm^2, 25 μm separator) was “about 7×10^−7 cm^2/sec”. For the same compound, the shuttle diffusion constant [4] was 1.6×10^−6 cm^2/sec and the shuttle plateau [5] was roughly 3.9 V.
In the case of `COc1c(C(C)(C)C)cc([N+](=O)[O-])c(C)c1[N+](=O)[O-]` [Example 11, 2-t-butyl-4,6-dinitro-5-methylanisole], the “Potential V, Li/Li^+” value [1] is reported as 4.9 V.
